Columns and labels:
L-SMase = biological target: T1, L-SMase (Homo sapiens, UniProt P17405); test: SMase assay of HUVEC cell homogenate, zinc-dependency; format: biochemical
T1 construct: endogenous in cells; host or cells: HUVEC, sonicated cell homogenate
T1 sequence (P17405 47-631): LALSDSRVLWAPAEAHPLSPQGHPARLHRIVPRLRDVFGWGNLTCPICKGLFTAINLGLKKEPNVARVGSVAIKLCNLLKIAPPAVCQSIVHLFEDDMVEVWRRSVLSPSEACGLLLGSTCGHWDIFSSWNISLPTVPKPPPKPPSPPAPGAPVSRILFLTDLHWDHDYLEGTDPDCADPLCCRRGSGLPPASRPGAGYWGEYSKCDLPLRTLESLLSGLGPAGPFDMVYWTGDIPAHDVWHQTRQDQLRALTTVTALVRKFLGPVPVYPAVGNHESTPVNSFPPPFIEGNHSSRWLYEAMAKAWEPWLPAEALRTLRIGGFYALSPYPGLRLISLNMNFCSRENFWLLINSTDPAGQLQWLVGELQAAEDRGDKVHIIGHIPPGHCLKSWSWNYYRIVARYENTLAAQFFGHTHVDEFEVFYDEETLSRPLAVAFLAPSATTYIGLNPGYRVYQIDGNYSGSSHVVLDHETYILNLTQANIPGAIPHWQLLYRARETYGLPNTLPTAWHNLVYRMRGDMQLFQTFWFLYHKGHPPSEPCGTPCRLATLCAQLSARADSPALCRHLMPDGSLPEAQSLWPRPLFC
Description: Smase Assay—As previously described (15), the standard 200-μl assay mixture consisted of up to 40 μl of sample (conditioned media or homogenized cells; see above, and a volume of assay buffer (0.1 M sodium acetate, pH 5.0) to bring the volume to 160 μl. The reaction was initiated by the addition of 40 μl substrate (50 pmol [^3H]sphingomyelin) in 0.25 M sucrose containing 3% Triton X-100 (final concentration of Triton X-100 in the 200-μl assay mix=0.6%). When added, the final concentrations of EDTA and Zn^2+ were 5 mM and 0.1 mM, respectively, unless indicated otherwise. The assay mixtures were incubated at 37° C. for no longer than 3 h and then extracted by the method of Bligh and Dyer (37); the lower, organic phase was harvested, evaporated under N2, and fractionated by TLC using chloroform:methanol (95:5). The ceramide spots were scraped and directly counted to quantify [^3H]ceramide. Typically, our assay reactions contained approximately 20 μg of cellular homogenate protein and a volume of conditioned media derived from a quantity of cells equivalent to approximately 50 μg of cellular protein.

L-SMase of HUVECs = test: Cytokine regulation of L-SMase activity in HUVEC cell homogenates; format: cell-based, human; settings: cytokine-treated endothelial cells
Description: FIGS. 23A-B. Cytokine regulation of S- and L-SMase of HUVECs. […] Conditioned media (FIG. 23A) and cell homogenates (FIG. 23B) from these cells were then assayed for SMase activity in the presence or absence of 0.1 mM ZnCl2, respectively.
Cells—Primary cultures of HUVEC were obtained from fresh umbilical cords and maintained in cell culture as previously described (31). Human coronary artery endothelial cells from a donor were purchased from Clonetics Corp. (San Diego, Calif.; cat. # CC-2585, Strain #3033). The cells were grown in endothelial basal media (EBM) (Clonetics) supplemented with 10% HI-FES; 10 μg endothelial cell growth supplement/ml (Sigma; cat. # E0760) and 50 μg gentamicin/ml. Primary cultures of bovine aortic endothelial, cells were established and subcultured as described previously (32). […]

ASM (SMase) mRNA = test: Northern blot of SMase mRNA in HUVECs; format: cell-based, human; settings: IL-1β 5 ng/ml, 18 h
Description: FIG. 24. Northern blot analysis of HUVECs incubated in the absence or presence of IL-1β. HUVECs were incubated for 18 h in DMEM, 0.2% BSA alone (Con) or containing human recombinant interleukin-1β (5 ng/ml) (IL1β).
Northern Blot of SMase mRNA—Total cellular RNA was isolated from HUVECs using RNAzol B (Tel-Test. Inc., Friendswood, Tex.). Approximately 10 μg of RNA was separated on a 1% agarose gel and blotted onto a nylon membrane. The membrane was hybridized in a QuikHyb hybridization solution (Stratagene) with a 1.6-kB EcoRI-XhoI fragment of human ASM cDNA (41) that was labeled with ^32P by the random-priming Procedure (GIBCO-BRL®). The amount of RNA loaded for each condition was normalized using a probe to glyceraldehyde-3-phosphate dehydrogenase. The relative intensities of the mRNA bands were determined by densitometric scanning of the autoradiograms using a Molecular Dynamics Computing Densitometer (model 300A) with Image-Quant software.

| increase of enzymatic activity of L-SMase by Zn2+ (L-SMase; L-SMase from IL-1β-treated HUVECs) | increase of enzymatic activity of L-SMase by Zn2+ (L-SMase; L-SMase from untreated HUVECs) | increase in SMase mRNA normalized for GAPDH mRNA (ASM (SMase) mRNA) | Compound | L-SMase (lysosomal SMase) activity (L-SMase of HUVECs) |
| --- | --- | --- | --- | --- |
| 1.13±0.08 fold | 1.09±0.04 fold | – | [Cl-].[Cl-].[Zn+2] [Zn^2+, ZnCl2] | – |
| – | – | ~40% | IL-1β: human recombinant interleukin-1β | decreased |
